The CheMixHub viscosity set

Experiment: xn = mol fraction of the nth substance listed

CCC(N)=O + c1ccncc1
298.15 K, 101 kPa
Settings | viscosity [mPa·s]
x1 = 0.0852 | 1.047
x1 = 0.1462 | 1.208
x1 = 0.2521 | 1.615

C[N+](C)(C)CCC[n+]1ccccc1.N#C[N-]C#N.N#C[N-]C#N + CCO
viscosity [mPa·s], 100 kPa
Settings | 293.15 K | 313.15 K | 323.15 K
x1 = 0.7003 | – | – | 75.75
x1 = 0.7998 | 614.5 | 161.5 | 99.22

CCCCC + CCCCCCC
298.15 K, 101.33 kPa
Settings | viscosity [mPa·s]
x1 = 0.1046 | 0.3691
x1 = 0.2024 | 0.3579
x1 = 0.3087 | 0.3325
x1 = 0.4077 | 0.3173
x1 = 0.4979 | 0.3004
x1 = 0.5999 | 0.2848
x1 = 0.6624 | 0.2762
x1 = 0.7972 | 0.254
x1 = 0.8929 | 0.242

CC(=O)O.NCCO + CS(C)=O
298.15 K, 101.3 kPa
Settings | viscosity [mPa·s]
x2 = 0.069 | 1634
x2 = 0.143 | 1064
x2 = 0.223 | 420
x2 = 0.311 | 375.1
x2 = 0.404 | 139.5
x2 = 0.502 | 66.42
x2 = 0.612 | 29.5
x2 = 0.732 | 12.73
x2 = 0.852 | 6.71

O=C(O)C=Cc1ccccc1 + CO
viscosity [mPa·s]
Settings | 308.15 K | 313.15 K | 318.15 K | 323.15 K
101 kPa, x1 = 0.075 | 0.8921 | – | – | 0.7246
101 kPa, x1 = 0.084 | 0.9758 | – | – | 0.7679
101 kPa, x1 = 0.0887 | 1.014 | – | – | 0.797
101 kPa, x1 = 0.0981 | 1.092 | – | – | 0.846
101.33 kPa, x1 = 0.075 | 0.891 | 0.8453 | 0.7855 | 0.7246
101.33 kPa, x1 = 0.0981 | 1.092 | 1.003 | 0.9163 | 0.846

CC(=O)CC(C)(C)O + CC(=O)CC(C)C
298.15 K, 101 kPa
Settings | viscosity [mPa·s]
x2 = 0.1301 | 2.157
x2 = 0.2473 | 1.707
x2 = 0.3676 | 1.351
x2 = 0.4821 | 1.108
x2 = 0.5836 | 0.943
x2 = 0.6974 | 0.796
x2 = 0.8046 | 0.687
x2 = 0.9001 | 0.608

OC1CCCCC1 + OCCO
viscosity [mPa·s], 100 kPa
Settings | 293.15 K | 298.15 K | 303.15 K | 308.15 K | 313.15 K | 318.15 K
x1 = 0.0097 | 20.9 | 16.96 | 13.79 | 11.32 | 9.626 | 7.932
x1 = 0.0396 | 21.26 | 17.11 | 13.94 | 11.35 | 9.765 | 8.069
x1 = 0.058 | 21.37 | 17.21 | 14.04 | 11.44 | 9.849 | 8.139
x1 = 0.088 | 21.54 | 17.34 | 14.16 | 11.54 | 9.965 | 8.26
x1 = 0.1001 | 21.6 | 17.4 | 14.2 | 11.58 | 10 | 8.294
x1 = 0.1963 | 21.79 | 17.59 | 14.34 | 11.66 | 10.09 | 8.427
x1 = 0.3051 | 21.94 | 17.71 | 14.45 | 11.76 | 10.19 | 8.481
x1 = 0.397 | 22.13 | 17.96 | 14.66 | 12.02 | 10.42 | 8.606
x1 = 0.4994 | 23.25 | 18.43 | 15.1 | 12.54 | 10.71 | 8.723
x1 = 0.5878 | 26.46 | 20.22 | 16.33 | 12.82 | 11.32 | 9.179
x1 = 0.6994 | 31.25 | 23.24 | 18.88 | 14.44 | 12.15 | 9.912
x1 = 0.7971 | 38.27 | 28.43 | 22.87 | 17.78 | 14.34 | 11.34
x1 = 0.8978 | 53.55 | 38 | 28.77 | 22.38 | 17.93 | 13.99

CCN(CC)CCO + NCCO
Settings | viscosity [mPa·s]
293.15 K, 101 kPa, x2 = 0.9 | 22.75

CC(=O)CC(C)(C)O + O
Settings | viscosity [mPa·s]
298.15 K, 101 kPa, x1 = 0.017 | 1.261
298.15 K, 101 kPa, x2 = 0.2547 | 4.143
298.15 K, 101 kPa, x2 = 0.4824 | 5.758
298.15 K, 101 kPa, x2 = 0.6067 | 6.204
298.15 K, 101 kPa, x2 = 0.7114 | 5.917
298.15 K, 101 kPa, x2 = 0.776 | 5.315
298.15 K, 101 kPa, x2 = 0.8342 | 4.609
298.15 K, 101 kPa, x2 = 0.886 | 3.616
298.15 K, 101 kPa, x2 = 0.9237 | 2.698
298.15 K, 101 kPa, x2 = 0.9508 | 2.022
298.15 K, 101 kPa, x2 = 0.9511 | 2.022
298.15 K, 101 kPa, x2 = 0.9717 | 1.516
303.15 K, 100 kPa, x2 = 0.1 | 2.81
303.15 K, 100 kPa, x2 = 0.2 | 3.27
303.15 K, 100 kPa, x2 = 0.3 | 3.65
303.15 K, 100 kPa, x2 = 0.4 | 4.15
303.15 K, 100 kPa, x2 = 0.5 | 4.55
303.15 K, 100 kPa, x2 = 0.6 | 4.71
303.15 K, 100 kPa, x2 = 0.7 | 4.57
303.15 K, 100 kPa, x2 = 0.8 | 4.08
303.15 K, 100 kPa, x2 = 0.9 | 2.6
323.15 K, 100 kPa, x2 = 0.1 | 1.69
323.15 K, 100 kPa, x2 = 0.2 | 1.82
323.15 K, 100 kPa, x2 = 0.3 | 2.06
323.15 K, 100 kPa, x2 = 0.4 | 2.1
323.15 K, 100 kPa, x2 = 0.5 | 2.3
323.15 K, 100 kPa, x2 = 0.6 | 2.32
323.15 K, 100 kPa, x2 = 0.7 | 2.31
323.15 K, 100 kPa, x2 = 0.8 | 2.09
323.15 K, 100 kPa, x2 = 0.9 | 1.48

CCCCC + CC(C)O
298.15 K, 101 kPa
Settings | viscosity [mPa·s]
x2 = 0.1128 | 0.262
x2 = 0.2204 | 0.281
x2 = 0.3273 | 0.323
x2 = 0.4232 | 0.385
x2 = 0.516 | 0.466
x2 = 0.6004 | 0.577
x2 = 0.6858 | 0.71
x2 = 0.7699 | 0.966
x2 = 0.8524 | 1.272
x2 = 0.9438 | 1.702

CCCCC + COC(C)=O
298.15 K, 101 kPa
Settings | viscosity [mPa·s]
x1 = 0.05 | 0.342
x1 = 0.1 | 0.324
x1 = 0.1087 | 0.322
x1 = 0.15 | 0.309
x1 = 0.2 | 0.296
x1 = 0.2088 | 0.295
x1 = 0.25 | 0.285
x1 = 0.3 | 0.275
x1 = 0.3035 | 0.273
x1 = 0.35 | 0.266
x1 = 0.4 | 0.257
x1 = 0.401 | 0.258
x1 = 0.45 | 0.25
x1 = 0.5 | 0.243
x1 = 0.5022 | 0.243
x1 = 0.55 | 0.237
x1 = 0.5972 | 0.232
x1 = 0.6 | 0.232
x1 = 0.65 | 0.227
x1 = 0.7 | 0.223
x1 = 0.7028 | 0.223
x1 = 0.75 | 0.22
x1 = 0.8 | 0.218
x1 = 0.8002 | 0.219
x1 = 0.85 | 0.217
x1 = 0.9 | 0.216
x1 = 0.9009 | 0.218
x1 = 0.95 | 0.215

CCCCN(CCC#N)CCCC + O=S=O
303.15 K, 100 kPa
Settings | viscosity [mPa·s]
x2 = 0.17 | 4.1
x2 = 0.34 | 8
x2 = 0.45 | 13.8

CC(=O)CC(C)(C)O + OCc1ccccc1
298.15 K, 101 kPa
Settings | viscosity [mPa·s]
x2 = 0.0518 | 2.886
x2 = 0.1087 | 3.021
x2 = 0.1705 | 3.199
x2 = 0.2406 | 3.41
x2 = 0.3325 | 3.67
x2 = 0.3445 | 3.703
x2 = 0.4344 | 3.968
x2 = 0.5378 | 4.295
x2 = 0.6345 | 4.596
x2 = 0.7171 | 4.831
x2 = 0.7554 | 4.935
x2 = 0.8122 | 5.096
x2 = 0.878 | 5.303
x2 = 0.9123 | 5.42
x2 = 0.9146 | 5.43

CCCCC + CCCCCCCCCCCCCCCC
298.15 K, 101.33 kPa
Settings | viscosity [mPa·s]
x1 = 0.1111 | 2.574
x1 = 0.2119 | 2.17
x1 = 0.3099 | 1.816
x1 = 0.4166 | 1.457
x1 = 0.5122 | 1.172
x1 = 0.6089 | 0.9218
x1 = 0.7034 | 0.7004
x1 = 0.8034 | 0.5086
x1 = 0.9029 | 0.3464
